Test results published in patent publication US20210260101A1, “POTENTIATED ANTIBIOTIC COMPOSITIONS AND METHODS OF USE FOR TREATING BACTERIAL INFECTIONS AND BIOFILMS” (priority 2018, published 2021).
“And” between values parts separate entries of the source, which are not always exact repeats. Equal values may be shown once. Read-outs that look alike come from different tables or passages of the source.

Assays:
[1] = system: PA OU19; experiment: Checkerboard assay, PA OU19; assay type: cell-based, Pseudomonas aeruginosa
Experimental: (§1) Cells were grown at 35° C. with shaking. The OD600 (optical density at 600 nm) was monitored and recorded for each sample over 24 hr. Each checkerboard trial was done in triplicate using sterile Greiner CellStar™ flat bottom polystyrene plates, catalog #655180. Each growth curve was done in duplicate.

[2] = system: P. aeruginosa 27853; experiment: Checkerboard assay, P. aeruginosa 27853; assay type: cell-based, Pseudomonas aeruginosa
Experimental: (§2) Cells were grown at 37° C. The change in OD600 (optical density at 600 nm) was measured and recorded after 24 hr of treatment. Each checkerboard trial was done in triplicate using sterile Greiner CellStar™ flat bottom polystyrene plates, catalog #655180.
as §1

[3] = system: P. aeruginosa OU1 (PA OU1); experiment: Checkerboard assay, clinical isolate PA OU1; assay type: cell-based, Pseudomonas aeruginosa
Experimental: as §2, §1

[4] = system: MRSE 35984 biofilm formation; experiment: Crystal violet biofilm formation inhibition (MBIC); assay type: cell-based, Staphylococcus epidermidis
Text: Additionally, higher concentrations of BPEI corresponded to greater inhibition of biofilm formation.

[5] = system: MRSA USA 300 ATCC 1717; experiment: Checkerboard MIC assay against MRSA USA300 (Example 1); assay type: cell-based, Staphylococcus aureus; conditions: MRSA USA300
[6] = system: E. coli 25922; experiment: MIC/potentiation against E. coli 25922; assay type: cell-based, Escherichia coli; conditions: 3×10^5 CFU/mL
[7] = system: clinical isolates OU15, OU19, and OU22; experiment: Checkerboard assay, isolates OU15, OU19 and OU22 reported together; assay type: cell-based, Pseudomonas aeruginosa; conditions: Pseudomonas aeruginosa
Experimental: as §1

[8] = system: MRSE ATCC 29887 biofilm; experiment: MBEC assay (challenge plate MIC, recovery plate MBEC), MRSE 29887; assay type: cell-based, Staphylococcus epidermidis
Experimental: A sub-culture of MRSE was grown from the cryogenic stock on an agar plate overnight at 35° C. The MBEC plate was inoculated with 150 μL of TSB/well plus 1 μL of a stock culture made from 1 colony/mL of MRSE in TSB. The MBEC inoculator plate was sealed with Parafilm and incubated for 24 hours at 35° C. with 100 rpm shaking to facilitate biofilm formation on the prongs. Following biofilm formation, the lid of the MBEC inoculator was removed and placed in a rinse plate containing 200 μL of sterile PBS for 10 sec. Biofilm growth check (BGC) was performed by breaking a few prongs off using sterile pliers, submerging them in 1 mL PBS, and sonicating them on high for 30 minutes to dislodge the biofilm. After sonication, the biofilm solution was serial-diluted and spot-plated on agar plates for CFU counting to determine the biofilm density on the prongs.
A challenge plate was made in a new pre-sterilized 96-well plate in a checkerboard-assay pattern to test the synergistic activity of BPEI+antibiotic combinations. […] After incubation, the OD600 (optical density at 600 nm) of the recovery plate was measured using a Tecan Infinite M20 plate reader to determine the MBEC of the antimicrobial compounds tested. […] Likewise, the OD600 for the base of the challenge plate was measured […] to determine the MICs of the antimicrobial compounds.

[9] = system: biofilms of P. aeruginosa BAA-47; experiment: MBEC assay (Calgary biofilm device), PA BAA-47; assay type: cell-based, Pseudomonas aeruginosa
Experimental: A sub-culture of P. aeruginosa BAA-47 was grown from the cryogenic stock on an agar plate overnight at 35° C. The MBEC plate was inoculated with 150 μL of CAMHB/well plus 1 μL of a stock culture made from 1 colony/mL of P. aeruginosa BAA-47 in CAMHB (˜5×10^5 CFU/mL). The MBEC inoculator plate was sealed with Parafilm™ and incubated for 24 hr at 35° C. with 100 rpm shaking to facilitate biofilm formation on the prongs. Following biofilm formation, the lid of the MBEC inoculator was removed and placed in a rinse plate containing 200 μL of sterile PBS for 10 sec. […] Antimicrobial solutions were serial-diluted and added to the 96-well plate, which contained 200 μL of CAMHB per well. After the rinsing step, the preformed biofilm prong lid was immediately transferred into the prepared antimicrobial challenge plate and incubated at 35° C. for 20-24 hr. […] After incubation, the OD600 of the recovery plate was measured using a Tecan Infinite M20 plate reader to determine the MBEC of the antimicrobial compounds tested. […] Likewise, the OD600 for the base of the challenge plate was measured to determine the MICs of the antimicrobial compounds. The fractional inhibitory concentration index (FICI) calculated based on the established equation was used to determine synergy (FICI≤0.5), additivity (0.5<FICI<1), and no synergy (FICI≥1).

[10] = system: P. aeruginosa PA01 ATCC BAA-47; experiment: MIC/potentiation against P. aeruginosa PA01 (Example 1); assay type: cell-based, Pseudomonas aeruginosa; conditions: higher inoculum, 5 × 10^7 CFU/ml
[11] = system: PA OU12; experiment: Checkerboard assay, PA OU12; assay type: cell-based, Pseudomonas aeruginosa
Experimental: as §1

[12] = system: P. aeruginosa ATCC BAA-47; experiment: Checkerboard assay (Example 5), PA BAA-47; assay type: cell-based, Pseudomonas aeruginosa
Experimental: as §1

[13] = system: PA OU22; experiment: Checkerboard assay, PA OU22; assay type: cell-based, Pseudomonas aeruginosa
Experimental: as §1

[14] = system: PA OU15; experiment: Checkerboard assay, PA OU15; assay type: cell-based, Pseudomonas aeruginosa
Experimental: as §1

PIP MIC in combination with BPEI600 ([1]; BPEI600 amount in same cell): 1 µg/mL
MIC ([1]; Pseudomonas aeruginosa, PA OU19, agent alone, read-out: MIC): > 256 µg/mL
PIP MIC in combination with 600 Da BPEI ([2]; BPEI amount in same cell): 0.25 µg/mL
PIP MIC in combination with PEG-BPEI ([2]; PEG-BPEI amount in same cell): 0.5 µg/mL
MIC ([2]; Pseudomonas aeruginosa, PA 27853, agent alone, piperacillin only, no tazobactam): 4 µg/mL
PIP MIC in combination with 600 Da BPEI [3]: 8 µg/mL and 4 µg/mL
PIP MIC in combination with PEG-BPEI ([3]; PEG-BPEI amount in same cell): 4 µg/mL
MIC ([3]; Pseudomonas aeruginosa, PA OU1, agent alone, piperacillin only, no tazobactam): 64 µg/mL
PIP MIC in combination with 600 Da BPEI ([3]; listed as PIP): 4 µg/mL
MIC with 4 μg/ml (6.75 μM) 600-Da BPEI [5]: 1 µg/mL
MIC ([5]; Staphylococcus aureus, agent alone, read-out: MIC of antibiotic only): 4 µg/mL
MIC ([6]; Escherichia coli, 25922, read-out: piperacillin MIC with 8 μg/mL (13.6 μM) of BPEI600): 0.125 µg/mL
MIC ([6]; Escherichia coli, 25922, read-out: piperacillin MIC with 32 μg/mL (34 μM) of PEG350-BPEI600): 0.25 µg/mL
MIC ([6]; Escherichia coli, 25922, alone, read-out: piperacillin MIC): 1 µg/mL
MIC ([7]; read-out: piperacillin MIC with BPEI600 at ¼th of its MIC value): 1 to 4 µg/mL
MIC ([7]; isolates OU15, OU19, OU22, agent alone (data not shown), read-out: MIC): > 256 µg/mL
MIC ([8]; Staphylococcus epidermidis, MRSE 29887, agent alone): 512 µg/mL
MIC, antibiotic + 0.5 μg/ml (0.85 μM) 600-Da BPEI [10]: 16 µg/mL
MIC, antibiotic + 4 μg/ml (4.25 μM) PEG350BPEI600 [10]: 32 µg/mL
PIP MIC in combination with BPEI600 ([11]; BPEI600 amount in same cell): 8 µg/mL
MIC ([11]; Pseudomonas aeruginosa, PA OU12, agent alone): 128 µg/mL
PIP MIC in combination with BPEI600 ([12]; BPEI600 amount in same cell): 1 µg/mL
MIC ([12]; Pseudomonas aeruginosa, PA BAA-47, agent alone): 4 µg/mL
PIP MIC in combination with BPEI600 ([13]; BPEI600 amount in same cell): 4 µg/mL
MIC ([13]; Pseudomonas aeruginosa, PA OU22, agent alone, read-out: MIC): > 256 µg/mL
PIP MIC in combination with BPEI600 ([14]; BPEI600 amount in same cell): 32 µg/mL
MIC ([14]; Pseudomonas aeruginosa, PA OU15, agent alone, read-out: MIC): 128 µg/mL
Structure (SMILES): CCN1CCN(C(=O)N[C@@H](C(=O)N[C@@H]2C(=O)N3[C@@H]2SC(C)(C)[C@@H]3C(=O)O)c2ccccc2)C(=O)C1=O [piperacillin]
piperacillin concentration preventing biofilm growth with 8 μg/mL of BPEI [4]: 16 µg/mL
piperacillin concentration preventing biofilm growth with 16 μg/mL of BPEI [4]: 8 µg/mL
Minimum Biofilm Inhibitory Concentration (MBIC) ([4]; agent alone, 24 hours): 64 µg/mL
piperacillin concentration eradicating biofilms with 128 μg/mL BPEI ([8]; MRSE 29887 biofilm): 64 µg/mL
piperacillin MBEC in combination with BPEI600 ([9]; 16 μg/mL of BPEI): 8 µg/mL
MBEC ([9]; P. aeruginosa BAA-47 biofilm, agent alone): 256 µg/mL
